# Measured values as given in patent US4407815A, “β-Lactam antibacterial compounds, their preparation and pharmaceutical compositions containing them” (Beecham Group Limited, priority 1980, dated 1983).
# Tests used:
# Assay in all cases: Minimum Inhibitory Concentration, serial dilution on DST agar
# Type in all cases: cell-based
# Staph. aureus Russell = conditions: lactamase-producing benzylpenicillin-resistant strain, DST agar + 10% horse blood, 0.001 ml of 10^-2 dilution (Gram-positive), 37° C., 18 h; for MIC: Staphylococcus aureus
# Method: (§1) ^a Determined by serial dilution on DST agar containing 10% horse
# (§2) blood using an inoculum of 0.001 ml of a 10^-2 dilution for
# (§3) Grampositive bacteria or a 10^-4 dilution for Gramnegative organisms.
# (§4) MIC values were read after incubation at 37° C. for 18 h.
# ^b Lactamase-producing benzylpenicillinresistant strain.
# Strep. faecalis = conditions: DST agar + 10% horse blood, 0.001 ml of 10^-2 dilution (Gram-positive), 37° C., 18 h
# Method: as §1, §2, §3, §4
# E. coli = conditions: DST agar + 10% horse blood, 0.001 ml of 10^-4 dilution (Gram-negative), 37° C., 18 h; for MIC: Escherichia coli
# Method: as §1, §2, §3, §4
# S. typhimurium = conditions: DST agar + 10% horse blood, 0.001 ml of 10^-4 dilution (Gram-negative), 37° C., 18 h; for MIC: Salmonella enterica
# Method: as §1, §2, §3, §4
# Staph. aureus Oxford = conditions: DST agar + 10% horse blood, 0.001 ml of 10^-2 dilution (Gram-positive), 37° C., 18 h; for MIC: Staphylococcus aureus
# Method: as §1, §2, §3, §4
# Strep. pneumoniae = conditions: DST agar + 10% horse blood, 0.001 ml of 10^-2 dilution (Gram-positive), 37° C., 18 h
# Method: as §1, §2, §3, §4
# Proteus mirabilis = conditions: DST agar + 10% horse blood, 0.001 ml of 10^-4 dilution (Gram-negative), 37° C., 18 h
# Method: as §1, §2, §3, §4
# B. subtilis = conditions: DST agar + 10% horse blood, 0.001 ml of 10^-2 dilution (Gram-positive), 37° C., 18 h; for MIC: Bacillus subtilis
# Method: as §1, §2, §3, §4
# Klebsiella aerogenes = conditions: DST agar + 10% horse blood, 0.001 ml of 10^-4 dilution (Gram-negative), 37° C., 18 h
# Method: as §1, §2, §3, §4
Structure (SMILES),MIC (Staph. aureus Russell),MIC (Strep. faecalis; Enterococcus faecalis),MIC (E. coli),MIC (S. typhimurium),MIC (Staph. aureus Oxford),MIC (Strep. pneumoniae; Streptococcus pneumoniae),MIC (Proteus mirabilis),MIC (B. subtilis),MIC (Klebsiella aerogenes),Minimum Inhibitory Concentration (Staph. aureus Russell),Minimum Inhibitory Concentration (Strep. faecalis),Minimum Inhibitory Concentration (E. coli),Minimum Inhibitory Concentration (S. typhimurium),Minimum Inhibitory Concentration (Staph. aureus Oxford),Minimum Inhibitory Concentration (Strep. pneumoniae),Minimum Inhibitory Concentration (Proteus mirabilis),Minimum Inhibitory Concentration (B. subtilis),Minimum Inhibitory Concentration (Klebsiella aerogenes)
N#CC1=C[C@@H]2[C@H](NC(=O)COc3ccccc3)C(=O)N2[C@H]1C(=O)O (relative stereo) [(57)],50 µg/mL,> 50 µg/mL,> 50 µg/mL,> 50 µg/mL,5 µg/mL,1.2 µg/mL,> 50 µg/mL,2.5 µg/mL,> 50 µg/mL,,,,,,,,,
"COC(=O)C1=C[C@@H]2[C@H](NC(=O)COc3ccccc3)C(=O)N2[C@H]1C(=O)O (relative stereo) [(39), (2RS, 5RS, 6SR) Sodium 1-aza-3-methoxycarbonyl-6-phenoxyacetamido-bicyclo-[3.2.0]-hept-3-en-7-one-2-carboxylate]",> 100 µg/mL,,> 100 µg/mL,> 100 µg/mL,2.5 µg/mL,,> 100 µg/mL,1 µg/mL,> 100 µg/mL,,,,,,,,,
"COC(=O)C1=C[C@@H]2[C@H](NC(=O)C(C(=O)OCc3ccccc3)c3ccccc3)C(=O)N2[C@H]1C(=O)O.Cc1ccc(N)cc1 (mixture of isomers) [(54), (2RS, 5RS, 6SR) 1-Aza-6-(DL-α-benzyloxycarbonyl-phenylacetamido)-3-methoxycarbonylbicyclo [3.2.0]-hept-3-en-7-one-2-carboxylic acid, p-toluidine salt]",,,,,,,,,,> 100 µg/mL,> 100 µg/mL,> 100 µg/mL,100 µg/mL,> 100 µg/mL,10 µg/mL,> 100 µg/mL,25 µg/mL,100 µg/mL
"COC(=O)C1=C[C@@H]2[C@H](NC(=O)[C@H](N)c3ccccc3)C(=O)N2[C@H]1C(=O)O.Cc1ccc(N)cc1 (racemic) [(48), (2RS, 5RS, 6SR) 1-Aza-3-methoxycarbonyl-6-D-α-phenylglycylamino-bicyclo-[3.2.0]-hept-3-en-7-one-2-carboxylic acid, p-toluidine salt]",,,,,,,,,,> 50 µg/mL,12.5 µg/mL,50 µg/mL,12.5 µg/mL,12.5 µg/mL,0.5 µg/mL,25 µg/mL,1.2 µg/mL,50 µg/mL
